Laboratory results as given in paper PMC11364104, “Discovery of SARS-CoV-2 papain-like protease (PL^pro) inhibitors with efficacy in a murine infection model” (Science Advances, 2024).
pIC50, pKi: −log10 of the molar value. Like-named read-outs stand apart in the source and are kept apart here.

Key:
Dopamine Transporter = molecular target: T1, Dopamine Transporter (Homo sapiens, UniProt Q01959); assay: CEREP transporters-binding
T1 construct: purchased Eurofins Cerep

Human Cathepsin S = molecular target: T2, Human Cathepsin S (Homo sapiens, UniProt P25774); assay: biochemical
T2 construct: assay run at Reaction Biology Corporation

L-Type Ca (verapamil) = assay: CEREP ion channel-binding; details: 30 µM
Src Kinase = molecular target: T3, Src Kinase (Homo sapiens, UniProt P12931); assay: CEREP kinase inhibition; format: biochemical
T3 construct: purchased Eurofins Cerep

[1] = molecular target: Human Immunodeficiency Virus-1 protease (Human immunodeficiency virus type 1 group M subtype B, UniProt P04585); assay: biochemical
Acetylcholinesterase = molecular target: T4, Acetylcholinesterase (Homo sapiens, UniProt P22303); assay: CEREP enzyme inhibition; format: biochemical
T4 construct: purchased Eurofins Cerep

PDE4D2 = molecular target: T5, PDE4D2 (Homo sapiens, UniProt Q08499); assay: CEREP enzyme inhibition; format: biochemical
T5 construct: purchased Eurofins Cerep

MERS_Plpro = MERS_Plpro (Middle East respiratory syndrome-related coronavirus, UniProt K9N7C7); assay: biochemical; set-up: species or system MERS-CoV
Human Cathepsin V = molecular target: T6, Human Cathepsin V (Homo sapiens, UniProt O60911); assay: biochemical
T6 construct: assay run at Reaction Biology Corporation

AMPA Receptor = assay: CEREP ion channel-binding; details: 30 µM
Human Cathepsin L = molecular target: T7, Human Cathepsin L (Homo sapiens, UniProt P07711); assay: biochemical
T7 construct: assay run at Reaction Biology Corporation

L-Type Ca (Diltiazem) = assay: CEREP ion channel-binding; details: 30 µM
Abl Kinase = molecular target: T8, Abl Kinase (Homo sapiens, UniProt P00519); assay: CEREP kinase inhibition; format: biochemical
T8 construct: purchased Eurofins Cerep

Human Cathepsin K = molecular target: T9, Human Cathepsin K (Homo sapiens, UniProt P43235); assay: biochemical
T9 construct: assay run at Reaction Biology Corporation

LogD = format: physicochemical
PPAR gamma (Binding) = molecular target: T10, PPAR gamma (Binding) (Homo sapiens, UniProt P37231); assay: CEREP NHR-binding
T10 construct: purchased Eurofins Cerep

[2] = RRCK passive permeability; details: dog, MDCK
Serotonin 3 = molecular target: T11, Serotonin 3 (Homo sapiens, UniProt P46098); assay: CEREP ion channel-binding
T11 construct: purchased Eurofins Cerep

Rat pharmacokinetics = format: in vivo, Wistar-Hannover rat; details: for Vd: rat, iv, 1 mg/kg, read-out: Vdss
Method: Figure S1. Setting Up the Collaboration Workflow and Operations
Preclinical Pharmacokinetics Studies
All activities involving animals were carried out in accordance with federal, state, local and institutional guidelines governing the use of laboratory animals in research in AAALAC accredited facilities and were reviewed and approved by Pfizer’s or Bioduro’s Institutional Animal Care and Use committee.
Mouse pharmacokinetic studies were done at BioDuro Pharmaceutical Product Development Inc. (Shanghai, PRC); male C57BL6 mice were purchased from Vital River (Beijing, China) and were typically 7-9 weeks of age at the time of dosing. During the pharmacokinetic studies all animals were housed individually. Access to food and water was provided ad libitum (i.e., subjects were dosed in the fed state). Compounds were administered intravenously (iv) via tail vein (n=2) dosed as a solution (1 mg/kg, 3 mL/kg) or via oral gavage as a solution (10 mg/kg, 3 mL/kg and 30 mg/kg, 3mL/kg) or as a suspension (15 mg/kg, 10 mL/kg; 50 mg/kg, 10 mL/kg; and 150 mg/kg, 10mL/kg). Dosing solutions were prepared immediately before dosing. The composition of each dosing vehicle is provided in Tables S5 and S6. Isoflurane was administered as anesthesia at 1-2% dose prior to collecting blood samples. Serial blood samples were collected via the retroorbital capillary at predetermined timepoints after dosing. Animals were monitored for pain or distress throughout the study, with at least daily monitoring during normal husbandry prior to study start. At the completion of the study, animals were euthanized by overdose of inhaled carbon dioxide. Blood samples were collected into tubes containing K2EDTA and stored on ice until centrifugation to obtain plasma, which was stored frozen at - 20 °C or lower until bioanalysis.
Rat pharmacokinetic studies were done at BioDuro Pharmaceutical Product Development Inc. (Shanghai, PRC); jugular vein- cannulated male Wistar-Hannover rats were purchased
(1 picture or pasted object on this page, not shown here) […]
from Vital River (Beijing, China) and were typically 7-9 weeks of age at the time of dosing.
During the pharmacokinetic studies all animals were housed individually. Access to food and water was provided ad libitum (i.e., subjects were dosed in the fed state). In the instances where oral (po) dose was administered in the fed state, with ad libitum access to food and water. Compounds were administered intravenously (iv) via the tail vein (n = 2) dosed as a solution (1 mg/kg, 3 ml/kg) or via oral gavage as a solution (10 mg/kg, 10 ml/kg). Dosing solutions were prepared immediately before dosing. The composition of each dosing vehicle […]
Serial blood samples were collected via the jugular vein cannula at […]
centrifugation to obtain plasma, which was stored frozen at - 20 °C or lower.
Dog pharmacokinetic studies were done at Pfizer (Groton, CT). All procedures performed on beagle dogs were in accordance with regulations and established guidelines and were reviewed and approved by an Institutional Animal Care and Use Committee through an ethical review process. Male Beagle dogs were purchased from Marshall Bioresources (North Rose, NY); subjects 3 years of age were used in pharmacokinetics studies. For each study (n=2), compounds were dosed iv by cephalic vein as a solution (0.5 mg/kg, 1 mL/kg) or via oral gavage as a suspension (3 mg/kg, 5 mL/kg). In the instances where oral (po) dose was administered in the fed state, dogs were fed a couple hours before dosing. In the instances where the IV dose was administered in the fasted state, dogs were fasted over night and fed 4 hours post dose. Subjects were monitored for pain or distress throughout the study followed by at least daily monitoring while off study. The iv dosing vehicle was optimized such that the compounds were in solution and stable for at least 24 h. Serial blood samples were collected via the jugular vein at predefined time points post-dose. Blood […]

L-Type Ca (Nifedipine) = assay: CEREP ion channel-binding; details: 30 µM
GABAa1 Receptor = molecular target: T12, GABAa1 Receptor (Homo sapiens, UniProt P14867); assay: CEREP ion channel-binding
T12 construct: purchased Eurofins Cerep

[3] = Wistar-Hannover, plasma, Male Wistar Hanover Rat, 1.0 mg/kg iv, solution, mean n=2
[4] = Wistar-Hannover, plasma, Male Wistar Hanover Rat, 10 mg/kg po, solution, mean n=2

Chain of MERS_Plpro (K9N7C7 1552-1823 limits assumed): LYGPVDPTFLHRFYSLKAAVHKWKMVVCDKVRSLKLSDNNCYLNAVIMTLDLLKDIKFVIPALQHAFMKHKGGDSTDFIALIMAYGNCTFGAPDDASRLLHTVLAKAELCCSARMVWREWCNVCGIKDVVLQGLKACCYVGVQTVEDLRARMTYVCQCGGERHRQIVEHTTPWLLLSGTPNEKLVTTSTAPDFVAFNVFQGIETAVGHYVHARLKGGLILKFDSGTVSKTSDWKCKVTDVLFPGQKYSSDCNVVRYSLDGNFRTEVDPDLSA
T4 sequence (P22303 32-614): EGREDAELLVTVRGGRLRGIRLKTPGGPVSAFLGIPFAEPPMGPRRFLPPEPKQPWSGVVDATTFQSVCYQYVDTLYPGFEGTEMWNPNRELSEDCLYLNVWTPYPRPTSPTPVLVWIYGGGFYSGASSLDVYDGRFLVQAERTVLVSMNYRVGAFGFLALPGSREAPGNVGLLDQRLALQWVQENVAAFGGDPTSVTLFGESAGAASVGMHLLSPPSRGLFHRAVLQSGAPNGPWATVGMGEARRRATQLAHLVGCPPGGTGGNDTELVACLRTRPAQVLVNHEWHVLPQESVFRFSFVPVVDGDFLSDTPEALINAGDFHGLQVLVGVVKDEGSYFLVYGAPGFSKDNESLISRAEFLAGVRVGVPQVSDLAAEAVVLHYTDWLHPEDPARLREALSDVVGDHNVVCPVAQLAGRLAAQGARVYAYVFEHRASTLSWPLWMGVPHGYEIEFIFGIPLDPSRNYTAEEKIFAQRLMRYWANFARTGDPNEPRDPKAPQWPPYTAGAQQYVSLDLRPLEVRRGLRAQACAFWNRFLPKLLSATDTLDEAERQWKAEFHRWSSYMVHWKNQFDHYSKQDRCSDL
T10 sequence (P37231 whole entry): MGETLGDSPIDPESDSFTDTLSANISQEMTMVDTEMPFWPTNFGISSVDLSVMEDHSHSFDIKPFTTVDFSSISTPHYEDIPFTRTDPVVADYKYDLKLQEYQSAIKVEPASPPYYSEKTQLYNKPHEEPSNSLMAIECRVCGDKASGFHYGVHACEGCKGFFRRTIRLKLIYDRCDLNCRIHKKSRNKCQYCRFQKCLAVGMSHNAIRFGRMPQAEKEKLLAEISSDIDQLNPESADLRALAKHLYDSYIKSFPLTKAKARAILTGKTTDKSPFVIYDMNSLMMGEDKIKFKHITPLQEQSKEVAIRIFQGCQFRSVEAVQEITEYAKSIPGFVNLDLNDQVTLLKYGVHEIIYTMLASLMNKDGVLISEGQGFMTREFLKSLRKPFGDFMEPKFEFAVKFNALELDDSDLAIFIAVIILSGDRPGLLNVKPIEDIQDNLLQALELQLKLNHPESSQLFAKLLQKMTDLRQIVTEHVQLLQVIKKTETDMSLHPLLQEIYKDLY
T9 sequence (P43235 115-329): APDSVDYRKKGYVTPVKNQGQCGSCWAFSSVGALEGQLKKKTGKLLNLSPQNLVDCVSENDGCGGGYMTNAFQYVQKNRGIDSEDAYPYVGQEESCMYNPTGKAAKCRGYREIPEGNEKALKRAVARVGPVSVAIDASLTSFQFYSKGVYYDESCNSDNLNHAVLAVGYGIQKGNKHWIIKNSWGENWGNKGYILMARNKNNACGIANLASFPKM
T8 sequence (P00519 whole entry): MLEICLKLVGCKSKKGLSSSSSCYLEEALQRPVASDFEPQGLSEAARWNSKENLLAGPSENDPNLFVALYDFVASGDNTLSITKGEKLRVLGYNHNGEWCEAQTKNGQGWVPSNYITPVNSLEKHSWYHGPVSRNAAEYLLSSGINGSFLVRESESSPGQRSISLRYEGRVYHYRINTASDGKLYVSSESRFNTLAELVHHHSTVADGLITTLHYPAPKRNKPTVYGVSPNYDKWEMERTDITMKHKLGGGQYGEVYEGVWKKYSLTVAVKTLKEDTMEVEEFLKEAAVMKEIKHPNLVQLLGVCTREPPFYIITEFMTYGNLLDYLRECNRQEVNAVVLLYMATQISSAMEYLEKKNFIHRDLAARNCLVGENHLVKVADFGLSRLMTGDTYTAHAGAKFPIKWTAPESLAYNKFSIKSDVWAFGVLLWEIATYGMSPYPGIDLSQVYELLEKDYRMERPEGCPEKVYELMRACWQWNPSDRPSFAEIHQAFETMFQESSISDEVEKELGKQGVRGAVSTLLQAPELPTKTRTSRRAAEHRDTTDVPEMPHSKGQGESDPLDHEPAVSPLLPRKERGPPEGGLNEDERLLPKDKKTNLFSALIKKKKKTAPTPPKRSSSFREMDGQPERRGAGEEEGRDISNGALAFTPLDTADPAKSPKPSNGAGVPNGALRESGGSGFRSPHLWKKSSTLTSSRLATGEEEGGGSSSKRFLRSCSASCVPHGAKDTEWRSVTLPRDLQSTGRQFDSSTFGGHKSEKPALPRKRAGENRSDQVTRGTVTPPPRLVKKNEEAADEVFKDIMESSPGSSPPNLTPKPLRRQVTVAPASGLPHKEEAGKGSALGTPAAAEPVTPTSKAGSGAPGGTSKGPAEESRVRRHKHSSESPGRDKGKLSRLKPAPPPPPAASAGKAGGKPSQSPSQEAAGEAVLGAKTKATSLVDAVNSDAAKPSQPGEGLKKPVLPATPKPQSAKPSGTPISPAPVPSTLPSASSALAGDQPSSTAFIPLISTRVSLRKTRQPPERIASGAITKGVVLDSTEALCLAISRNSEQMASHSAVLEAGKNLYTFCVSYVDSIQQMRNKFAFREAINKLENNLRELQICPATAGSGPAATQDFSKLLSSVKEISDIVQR
T6 sequence (O60911 114-334): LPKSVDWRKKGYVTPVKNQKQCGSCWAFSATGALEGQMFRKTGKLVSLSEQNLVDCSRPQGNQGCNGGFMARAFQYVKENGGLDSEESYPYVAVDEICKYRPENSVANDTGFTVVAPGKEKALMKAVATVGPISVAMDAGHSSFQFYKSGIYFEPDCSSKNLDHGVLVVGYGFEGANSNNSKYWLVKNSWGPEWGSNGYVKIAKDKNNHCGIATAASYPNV
T2 sequence (P25774 115-331): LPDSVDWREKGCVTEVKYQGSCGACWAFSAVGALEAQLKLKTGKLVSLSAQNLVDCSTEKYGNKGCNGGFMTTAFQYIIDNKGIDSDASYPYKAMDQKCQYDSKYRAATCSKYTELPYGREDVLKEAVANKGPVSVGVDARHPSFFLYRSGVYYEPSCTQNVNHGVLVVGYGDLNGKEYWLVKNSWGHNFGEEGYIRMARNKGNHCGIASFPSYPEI
T1 sequence (Q01959 whole entry): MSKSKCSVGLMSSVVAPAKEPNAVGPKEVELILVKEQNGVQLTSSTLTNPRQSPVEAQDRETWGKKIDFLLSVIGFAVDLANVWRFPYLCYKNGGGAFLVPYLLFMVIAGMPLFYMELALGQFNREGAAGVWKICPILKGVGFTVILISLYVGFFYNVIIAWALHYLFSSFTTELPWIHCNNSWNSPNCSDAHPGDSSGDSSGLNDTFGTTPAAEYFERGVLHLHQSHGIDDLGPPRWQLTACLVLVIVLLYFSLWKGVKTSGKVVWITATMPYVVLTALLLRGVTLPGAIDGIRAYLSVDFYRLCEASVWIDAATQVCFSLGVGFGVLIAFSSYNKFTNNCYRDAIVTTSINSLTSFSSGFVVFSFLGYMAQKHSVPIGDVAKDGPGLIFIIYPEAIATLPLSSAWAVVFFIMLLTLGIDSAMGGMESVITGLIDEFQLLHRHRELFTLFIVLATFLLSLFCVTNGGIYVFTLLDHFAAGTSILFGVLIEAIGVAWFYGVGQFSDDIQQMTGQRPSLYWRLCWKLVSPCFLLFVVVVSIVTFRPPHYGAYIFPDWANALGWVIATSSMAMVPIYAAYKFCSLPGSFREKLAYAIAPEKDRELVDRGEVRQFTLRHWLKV
T7 sequence (P07711 114-333): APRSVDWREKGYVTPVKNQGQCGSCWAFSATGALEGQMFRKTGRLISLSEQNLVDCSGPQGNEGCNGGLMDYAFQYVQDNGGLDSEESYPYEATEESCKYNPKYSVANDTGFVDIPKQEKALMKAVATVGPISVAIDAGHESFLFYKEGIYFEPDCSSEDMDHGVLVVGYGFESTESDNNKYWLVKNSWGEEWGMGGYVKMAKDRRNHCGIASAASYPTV
T3 sequence (P12931 whole entry): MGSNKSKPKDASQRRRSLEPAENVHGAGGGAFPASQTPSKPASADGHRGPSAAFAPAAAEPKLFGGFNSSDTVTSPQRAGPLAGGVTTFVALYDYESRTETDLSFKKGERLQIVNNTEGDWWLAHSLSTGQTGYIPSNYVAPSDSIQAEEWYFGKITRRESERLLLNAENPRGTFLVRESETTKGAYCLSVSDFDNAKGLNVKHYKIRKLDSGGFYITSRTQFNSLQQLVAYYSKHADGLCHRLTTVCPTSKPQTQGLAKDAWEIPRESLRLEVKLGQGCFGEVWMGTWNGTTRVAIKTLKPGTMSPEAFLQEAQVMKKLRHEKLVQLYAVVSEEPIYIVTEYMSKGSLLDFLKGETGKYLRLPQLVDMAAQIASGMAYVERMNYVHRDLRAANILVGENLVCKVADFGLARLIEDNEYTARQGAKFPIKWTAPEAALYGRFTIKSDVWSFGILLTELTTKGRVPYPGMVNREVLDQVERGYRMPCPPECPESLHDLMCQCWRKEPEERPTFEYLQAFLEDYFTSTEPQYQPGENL

Structure (SMILES): Cc1ccc(N2CCN(C)CC2)cc1C(=O)NC1(c2cc(-c3cnn(C)c3)nc3ccccc23)CC1 [Compound 4]
- inhibition at 30 µM (Dopamine Transporter): 8%
- pIC50 (Human Cathepsin S): < 4.00
- % inhibition (L-Type Ca (verapamil)): -19%
- inhibition at 30 µM (Src Kinase): -5%
- pIC50 [1]: < 4.00
- inhibition at 30 µM (Acetylcholinesterase): 17%
- inhibition at 30 µM (PDE4D2): 20%
- pKi (MERS_Plpro): < 5.00
- activity on MERS PL^pro (MERS_Plpro): nearly inactive
- pIC50 (Human Cathepsin V): < 4.00
- % inhibition (AMPA Receptor): 13%
- pIC50 (Human Cathepsin L): < 4.00
- % inhibition (L-Type Ca (Diltiazem)): 10%
- inhibition at 30 µM (Abl Kinase): 2%
- pIC50 (Human Cathepsin K): < 4.00
- logD (LogD): 2.5
- inhibition at 30 µM (PPAR gamma (Binding)): 9%
- Papp [2]: 31.4 ×10⁻⁶ cm/s
- inhibition at 30 µM (Serotonin 3): -10%
- Oral F (Rat pharmacokinetics; Male Wistar Hanover Rat, 10 mg/kg po, solution, mean n=2): 69.7%
- AUC(0-inf) (Rat pharmacokinetics; [3]): 668 ng·h/mL
- half-life (Rat pharmacokinetics; [3]): 3.59 h
- clearance (Rat pharmacokinetics; Wistar-Hannover, plasma, Male Wistar Hanover Rat, 1.0 mg/kg iv, solution, mean n=2, read-out: CLp): 25.2 mL/min/kg
- AUC(0-inf) (Rat pharmacokinetics; [4]): 4650 ng·h/mL
- Cmax (Rat pharmacokinetics; [4]): 435 ng/mL
- Tmax (Rat pharmacokinetics; [4]): 3 h
- half-life (Rat pharmacokinetics; [4]): 3.19 h
- bioavailability (Rat pharmacokinetics; male, Wistar-Hannover, plasma, po, 10 mg/kg, rat (r), read-out: Oral F (%)): 69.7%
- Vd (Rat pharmacokinetics; male, Wistar-Hannover, plasma, Male Wistar Hanover Rat, 1.0 mg/kg iv, solution, mean n=2): 4.42 L/kg
- Vd (Rat pharmacokinetics; male, Wistar-Hannover, plasma, rat (r), intravenous): 4.4 L/kg
- % inhibition (L-Type Ca (Nifedipine)): -6%
- inhibition at 30 µM (GABAa1 Receptor): 10%
